# Laboratory results as given in the NIST ThermoML archive (doi:10.1021/je7000733).
# ± gives the expanded uncertainty stated by the source.
# Key:
# [1] = Liquid; for mass density: 293.1 K, 101.33 kPa, Vibrating tube method; for Normal boiling temperature: Fisher boiling point apparatus
# [2] = refractive index (Na D-line) (dimensionless); conditions: 293.1 K; 101.33 kPa; Liquid; Standard Abbe refractometry
SMILES,mass density [1] [kg/m3],Normal boiling temperature [1] [°C],refractive index [2]
CCOC(=O)CCCC(=O)OCC [diethyl glutarate],1022.04 ± 0.88,236.50 ± 0.2,1.42414 ± 0.00078
CCOC(=O)CCCCC(=O)OCC [diethyl hexanedioate],1007.63 ± 0.24,245.20 ± 0.2,1.42725 ± 0.0007
CC(=O)O [acetic acid],1044.3 ± 0.27,118.00 ± 0.2,1.37201 ± 0.0007
CCOC(=O)CCC(=O)OCC [diethyl butanedioate],1040.22 ± 0.27,217.70 ± 0.2,1.42014 ± 0.0007
